Literature values as cited in patent publication US20050084931A1, “Human prostaglandin DP receptor variants and methods of using same” (priority 2003, published 2005).
Like-named read-outs stand apart in the source and are kept apart here.

Target: T1, human DP receptor (Homo sapiens, UniProt Q13258)
T1 sequence (Q13258 1-359): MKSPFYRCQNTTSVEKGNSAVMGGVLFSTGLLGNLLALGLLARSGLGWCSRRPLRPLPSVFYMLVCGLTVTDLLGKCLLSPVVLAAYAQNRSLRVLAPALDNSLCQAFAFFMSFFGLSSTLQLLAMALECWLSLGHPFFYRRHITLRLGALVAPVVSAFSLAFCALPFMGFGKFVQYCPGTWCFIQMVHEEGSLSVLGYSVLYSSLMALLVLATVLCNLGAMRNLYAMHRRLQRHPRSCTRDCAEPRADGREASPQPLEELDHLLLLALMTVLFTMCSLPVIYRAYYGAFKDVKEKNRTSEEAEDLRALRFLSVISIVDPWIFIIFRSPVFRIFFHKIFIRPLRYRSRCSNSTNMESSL

CCCCC[C@H](O)/C=C/[C@H]1C(=O)C[C@H](O)[C@@H]1C/C=C\CCCC(=O)O [PGD2, Prostaglandin D2]
Kd (high-affinity site, read-out: high-affinity binding site): 0.3 nM
Kd (read-out: lower-affinity site): ~13 nM
